Active and inactive are the calls of the source.
Legend:
Paired box protein Pax-8 = Paired box protein Pax-8 (Homo sapiens, UniProt Q06710); assay: PAX8 transcriptional activity inhibition in RMG-I – RMG-I cells, luciferase, cherry-pick, dose response (AID 687027); assay type: functional, cell-based;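 also: luciferase reporter driven by Pax8 target thyroperoxidase promoter measured by SteadyGlo luminescence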
HEK293 [1] = assay: cells; assay type: functional, cell-based; settings: Homo sapiens
[2] = biological target: Neurotensin receptor type 1 (Homo sapiens, UniProt P30989); assay type: functional;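 also: Image-based confirmatory dose-response assay measuring agonist activity at NTR1; NTR1-expressing U2OS osteosarcoma cells imaged for beta-arrestin GFP spot formation; agonist potency where compounds increase beta-arrestin recruitment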
[3] = biological target: T1, Heat shock factor protein 1 (Mus musculus, UniProt P38532); assay: decrease of HSF1-responsive luciferase luminescence – cell-based, NIH3T3, dose retest, confirmation (AID 2382); assay type: functional;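 also: NIH3T3 fibroblasts with HSF1-driven luciferase reporter stressed by proteasome inhibitor MG132; luminescence from HSF1-driven luciferase expression after 8 hours of MG132 stress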
T1 sequence (P38532 whole entry): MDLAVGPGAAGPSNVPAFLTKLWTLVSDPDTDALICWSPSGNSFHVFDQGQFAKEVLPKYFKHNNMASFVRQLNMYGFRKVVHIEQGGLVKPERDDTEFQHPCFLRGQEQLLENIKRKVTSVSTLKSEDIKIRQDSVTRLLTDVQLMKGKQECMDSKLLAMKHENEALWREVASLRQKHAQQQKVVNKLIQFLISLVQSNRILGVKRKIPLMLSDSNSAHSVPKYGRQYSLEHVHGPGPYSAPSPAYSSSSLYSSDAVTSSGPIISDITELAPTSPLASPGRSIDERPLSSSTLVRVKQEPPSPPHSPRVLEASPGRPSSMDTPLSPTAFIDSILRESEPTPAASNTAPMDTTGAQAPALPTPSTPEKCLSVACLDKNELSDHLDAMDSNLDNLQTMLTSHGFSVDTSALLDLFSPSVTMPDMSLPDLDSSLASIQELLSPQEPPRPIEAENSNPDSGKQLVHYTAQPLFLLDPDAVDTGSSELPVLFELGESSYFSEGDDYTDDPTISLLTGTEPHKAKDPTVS

[4] = biological target: Nucleotide-binding oligomerization domain-containing protein 2 (Homo sapiens, UniProt Q9HC29); assay: inhibition of NOD2-driven NF-kB reporter – cell-based, luminescence, uHTS, HEK293 (AID 1566); assay type: functional
[5] = viability of PTEN-deleted HCT116 cells – cell-based, HCT116 PTEN knockout, dose response (AID 1047); assay type: functional;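 also: HCT116 colon tumor cells with PTEN knocked out; cells exposed to compound for 60 hours before readout; potency for loss of cell viability measured by luminescence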
Fatty acid synthase = Fatty acid synthase (Homo sapiens, UniProt P49327); assay: inhibition of human FAS-TE enzyme activity – biochemical, endpoint fluorescence intensity, uHTS hits, dose response (AID 624327); assay type: functional;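 also: fluorescence from hydrolysis of an O-methyl fluorescein acyl ester substrate by the enzyme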
HEK293 [6] = assay: NOD2 signaling inhibitors in MDP-stimulated cells, cell-based, uHTS, luminescence (AID 2001); assay type: functional; settings: Homo sapiens
[7] = general cell-killing toxicity readout – plate reader, dry powder samples, cytotoxicity control for PAX8 inhibitor project, dose response (AID 743021); assay type: functional, cell-based
[8] = biological target: T2, DNA repair protein RAD52 homolog (Homo sapiens, UniProt P43351); assay type: functional, biochemical
T2 sequence (P43351 whole entry): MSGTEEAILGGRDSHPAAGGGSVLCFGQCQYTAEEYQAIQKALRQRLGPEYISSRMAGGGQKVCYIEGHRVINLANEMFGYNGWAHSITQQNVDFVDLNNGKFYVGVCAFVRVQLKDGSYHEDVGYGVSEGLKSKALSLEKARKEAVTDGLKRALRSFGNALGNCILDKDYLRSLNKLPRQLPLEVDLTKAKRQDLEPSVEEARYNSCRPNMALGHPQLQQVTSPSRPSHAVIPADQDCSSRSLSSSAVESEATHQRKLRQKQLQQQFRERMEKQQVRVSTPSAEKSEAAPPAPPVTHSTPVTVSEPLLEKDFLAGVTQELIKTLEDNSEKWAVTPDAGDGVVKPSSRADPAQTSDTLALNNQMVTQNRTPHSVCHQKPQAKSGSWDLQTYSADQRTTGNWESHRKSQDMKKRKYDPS

[9] = biological target: T3, Ubiquitin-conjugating enzyme E2 N (Homo sapiens, UniProt P61088); assay type: functional
T3 sequence (P61088 whole entry): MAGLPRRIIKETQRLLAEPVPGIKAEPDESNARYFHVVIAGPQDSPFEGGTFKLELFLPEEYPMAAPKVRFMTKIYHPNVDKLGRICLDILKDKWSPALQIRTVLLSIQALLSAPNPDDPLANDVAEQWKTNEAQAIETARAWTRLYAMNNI

Bcl-2-related protein A1 = biological target: T4, Bcl-2-related protein A1 (Mus musculus, UniProt Q07440); assay type: functional;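 also: confirmatory dose–response counterscreen on Bfl-1, used to check hits from a UBC13 polyubiquitin inhibitor campaign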
T4 sequence (Q07440 whole entry): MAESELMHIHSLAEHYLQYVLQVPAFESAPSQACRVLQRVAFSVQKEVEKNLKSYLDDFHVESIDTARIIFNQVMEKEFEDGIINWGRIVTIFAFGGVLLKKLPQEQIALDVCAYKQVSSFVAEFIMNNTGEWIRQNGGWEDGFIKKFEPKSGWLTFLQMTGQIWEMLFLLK

[10] = biological target: T3, Ubiquitin-conjugating enzyme E2 N; assay type: functional; remark: listed apart in the source
Streptococcus = assay: GAS UMAA2166 growth inhibition – luminescence, BacTiterGlo, counter-screen for streptokinase expression inhibitor project, dose response (AID 1915); assay type: functional, organism-based;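 also: potency for reduction of bacterial viability or growth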
Streptokinase A = biological target: T5, Streptokinase A (Streptococcus pyogenes serotype M1, UniProt P10520); assay: viability-normalized secreted streptokinase activity reduction – plasminogen activation absorbance, OD405, dose response (AID 1914); assay type: functional, Streptococcus pyogenes M1 GAS;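 also: secreted streptokinase activity via plasminogen activation per viability signal from cell pellet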
T5 sequence (P10520 whole entry): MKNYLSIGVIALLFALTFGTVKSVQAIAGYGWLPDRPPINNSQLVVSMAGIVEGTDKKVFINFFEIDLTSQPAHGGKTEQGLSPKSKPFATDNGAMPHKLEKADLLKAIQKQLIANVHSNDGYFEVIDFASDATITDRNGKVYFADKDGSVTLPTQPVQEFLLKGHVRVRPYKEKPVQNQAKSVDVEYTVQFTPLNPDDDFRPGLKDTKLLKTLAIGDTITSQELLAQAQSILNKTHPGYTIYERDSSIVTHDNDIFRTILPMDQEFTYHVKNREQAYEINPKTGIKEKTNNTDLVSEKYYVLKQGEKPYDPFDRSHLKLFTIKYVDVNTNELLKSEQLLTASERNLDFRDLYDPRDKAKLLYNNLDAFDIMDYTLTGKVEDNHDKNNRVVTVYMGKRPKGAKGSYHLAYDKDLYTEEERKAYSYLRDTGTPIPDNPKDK

CAAX prenyl protease 1 = CAAX prenyl protease 1 (Saccharomyces cerevisiae S288c, UniProt P47154); assay: yeast CAAX protease Ste24 inhibition – biochemical, S. cerevisiae, plate reader, cherry-pick, dose response (AID 488815)
[11] = biological target: Heat shock protein HSP 90-alpha (Homo sapiens, UniProt P07900); assay type: functional, organism-based

Chain of Paired box protein Pax-8 (Q06710 whole entry): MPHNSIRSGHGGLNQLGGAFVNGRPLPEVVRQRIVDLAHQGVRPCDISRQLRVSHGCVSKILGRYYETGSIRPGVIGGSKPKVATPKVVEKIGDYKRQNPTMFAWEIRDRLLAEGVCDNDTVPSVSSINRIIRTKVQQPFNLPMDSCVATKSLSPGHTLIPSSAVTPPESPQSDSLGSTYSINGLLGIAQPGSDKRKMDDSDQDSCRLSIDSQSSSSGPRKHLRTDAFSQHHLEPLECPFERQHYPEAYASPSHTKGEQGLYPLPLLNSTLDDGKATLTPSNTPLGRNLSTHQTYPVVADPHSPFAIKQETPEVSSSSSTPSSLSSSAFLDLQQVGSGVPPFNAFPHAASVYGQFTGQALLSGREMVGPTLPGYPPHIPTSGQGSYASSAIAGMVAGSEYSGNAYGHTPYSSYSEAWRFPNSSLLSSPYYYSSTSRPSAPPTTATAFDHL
Chain of Fatty acid synthase (P49327 whole entry): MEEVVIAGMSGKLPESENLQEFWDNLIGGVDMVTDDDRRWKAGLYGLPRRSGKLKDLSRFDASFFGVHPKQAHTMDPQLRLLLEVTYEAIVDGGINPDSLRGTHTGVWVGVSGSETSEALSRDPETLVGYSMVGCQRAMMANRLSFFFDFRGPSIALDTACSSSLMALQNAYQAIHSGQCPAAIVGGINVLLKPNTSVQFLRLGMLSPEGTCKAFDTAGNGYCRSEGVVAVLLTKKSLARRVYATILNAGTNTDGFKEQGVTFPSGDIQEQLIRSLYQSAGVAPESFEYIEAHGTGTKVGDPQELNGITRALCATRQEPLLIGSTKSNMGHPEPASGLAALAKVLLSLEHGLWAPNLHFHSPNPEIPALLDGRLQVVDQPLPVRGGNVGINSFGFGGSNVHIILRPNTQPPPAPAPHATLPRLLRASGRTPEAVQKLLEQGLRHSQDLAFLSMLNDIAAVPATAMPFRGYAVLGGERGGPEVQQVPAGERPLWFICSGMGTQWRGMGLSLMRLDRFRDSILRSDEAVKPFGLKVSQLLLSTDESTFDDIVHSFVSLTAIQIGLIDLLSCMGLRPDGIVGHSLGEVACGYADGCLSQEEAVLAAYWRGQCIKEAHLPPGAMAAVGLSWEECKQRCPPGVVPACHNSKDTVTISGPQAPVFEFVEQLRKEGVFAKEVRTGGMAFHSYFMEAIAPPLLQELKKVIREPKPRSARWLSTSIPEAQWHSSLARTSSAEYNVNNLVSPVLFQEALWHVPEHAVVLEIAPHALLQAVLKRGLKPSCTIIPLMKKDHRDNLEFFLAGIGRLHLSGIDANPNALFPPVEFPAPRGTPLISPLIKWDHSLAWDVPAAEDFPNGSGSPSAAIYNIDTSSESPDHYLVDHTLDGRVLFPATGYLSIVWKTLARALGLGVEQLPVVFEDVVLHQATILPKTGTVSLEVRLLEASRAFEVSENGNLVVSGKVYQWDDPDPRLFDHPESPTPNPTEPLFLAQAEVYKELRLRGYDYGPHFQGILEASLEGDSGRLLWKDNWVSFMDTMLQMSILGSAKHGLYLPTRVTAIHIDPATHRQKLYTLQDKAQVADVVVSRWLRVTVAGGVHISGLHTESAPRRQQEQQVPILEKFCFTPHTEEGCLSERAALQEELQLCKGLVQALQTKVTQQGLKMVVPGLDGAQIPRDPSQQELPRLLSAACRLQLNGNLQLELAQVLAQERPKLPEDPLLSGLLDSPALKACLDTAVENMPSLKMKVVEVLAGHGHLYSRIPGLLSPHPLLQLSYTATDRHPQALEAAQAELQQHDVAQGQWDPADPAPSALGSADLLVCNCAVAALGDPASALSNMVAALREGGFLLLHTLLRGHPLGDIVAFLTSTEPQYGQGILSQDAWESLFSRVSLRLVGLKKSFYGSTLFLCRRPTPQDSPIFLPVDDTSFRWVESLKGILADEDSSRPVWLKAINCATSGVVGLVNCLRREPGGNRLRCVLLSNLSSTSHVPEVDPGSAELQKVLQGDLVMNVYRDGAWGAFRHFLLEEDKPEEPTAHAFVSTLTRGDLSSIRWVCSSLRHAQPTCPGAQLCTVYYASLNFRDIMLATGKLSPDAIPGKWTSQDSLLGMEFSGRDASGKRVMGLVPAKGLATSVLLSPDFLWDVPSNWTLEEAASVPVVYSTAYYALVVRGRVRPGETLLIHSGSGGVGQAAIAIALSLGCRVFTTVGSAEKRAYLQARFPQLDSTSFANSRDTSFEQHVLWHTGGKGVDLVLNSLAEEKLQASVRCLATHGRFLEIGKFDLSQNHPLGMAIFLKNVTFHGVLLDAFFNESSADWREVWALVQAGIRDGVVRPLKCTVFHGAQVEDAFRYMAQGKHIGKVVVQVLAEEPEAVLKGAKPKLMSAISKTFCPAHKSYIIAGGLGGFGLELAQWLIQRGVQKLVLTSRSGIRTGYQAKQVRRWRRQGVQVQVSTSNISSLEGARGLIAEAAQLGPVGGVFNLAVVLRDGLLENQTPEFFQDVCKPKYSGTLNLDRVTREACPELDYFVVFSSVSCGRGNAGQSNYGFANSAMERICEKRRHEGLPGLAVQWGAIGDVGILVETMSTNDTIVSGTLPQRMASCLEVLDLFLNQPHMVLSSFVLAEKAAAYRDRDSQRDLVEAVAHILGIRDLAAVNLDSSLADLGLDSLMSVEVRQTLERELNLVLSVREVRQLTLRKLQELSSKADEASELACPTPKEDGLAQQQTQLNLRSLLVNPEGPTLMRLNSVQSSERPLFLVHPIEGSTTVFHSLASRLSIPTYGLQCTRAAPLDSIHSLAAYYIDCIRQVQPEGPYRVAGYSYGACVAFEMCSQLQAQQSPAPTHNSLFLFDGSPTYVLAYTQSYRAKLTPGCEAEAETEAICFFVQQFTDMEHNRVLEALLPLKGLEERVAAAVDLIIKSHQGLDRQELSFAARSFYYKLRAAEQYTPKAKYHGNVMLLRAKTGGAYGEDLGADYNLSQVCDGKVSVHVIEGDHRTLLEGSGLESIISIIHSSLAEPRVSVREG
Chain of Nucleotide-binding oligomerization domain-containing protein 2 (Q9HC29 whole entry, the tested form may be a part): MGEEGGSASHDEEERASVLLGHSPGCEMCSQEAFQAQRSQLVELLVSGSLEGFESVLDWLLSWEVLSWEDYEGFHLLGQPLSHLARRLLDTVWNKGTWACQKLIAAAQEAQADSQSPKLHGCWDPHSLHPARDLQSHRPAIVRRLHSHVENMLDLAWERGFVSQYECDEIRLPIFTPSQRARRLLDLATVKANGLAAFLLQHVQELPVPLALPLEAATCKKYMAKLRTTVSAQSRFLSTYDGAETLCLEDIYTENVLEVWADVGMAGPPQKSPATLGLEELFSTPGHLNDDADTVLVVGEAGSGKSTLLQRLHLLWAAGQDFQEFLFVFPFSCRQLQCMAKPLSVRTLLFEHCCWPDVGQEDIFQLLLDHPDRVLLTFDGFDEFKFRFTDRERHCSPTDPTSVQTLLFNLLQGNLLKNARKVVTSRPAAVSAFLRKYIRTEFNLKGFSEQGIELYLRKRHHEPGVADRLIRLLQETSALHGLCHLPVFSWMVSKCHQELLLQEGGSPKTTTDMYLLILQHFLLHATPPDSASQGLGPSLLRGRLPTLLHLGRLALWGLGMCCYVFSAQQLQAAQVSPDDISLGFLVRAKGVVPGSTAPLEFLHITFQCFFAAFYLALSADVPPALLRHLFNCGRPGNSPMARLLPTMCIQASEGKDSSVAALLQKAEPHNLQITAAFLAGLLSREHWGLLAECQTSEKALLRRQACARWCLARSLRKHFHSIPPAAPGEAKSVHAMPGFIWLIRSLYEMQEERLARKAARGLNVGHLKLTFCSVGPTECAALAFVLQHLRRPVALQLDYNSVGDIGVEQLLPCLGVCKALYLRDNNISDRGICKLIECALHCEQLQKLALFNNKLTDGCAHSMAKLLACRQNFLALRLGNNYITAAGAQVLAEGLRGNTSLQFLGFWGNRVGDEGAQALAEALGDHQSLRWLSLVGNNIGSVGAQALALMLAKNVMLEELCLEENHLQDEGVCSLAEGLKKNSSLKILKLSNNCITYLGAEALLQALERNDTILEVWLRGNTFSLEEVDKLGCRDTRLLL
Chain of Neurotensin receptor type 1 (P30989 whole entry): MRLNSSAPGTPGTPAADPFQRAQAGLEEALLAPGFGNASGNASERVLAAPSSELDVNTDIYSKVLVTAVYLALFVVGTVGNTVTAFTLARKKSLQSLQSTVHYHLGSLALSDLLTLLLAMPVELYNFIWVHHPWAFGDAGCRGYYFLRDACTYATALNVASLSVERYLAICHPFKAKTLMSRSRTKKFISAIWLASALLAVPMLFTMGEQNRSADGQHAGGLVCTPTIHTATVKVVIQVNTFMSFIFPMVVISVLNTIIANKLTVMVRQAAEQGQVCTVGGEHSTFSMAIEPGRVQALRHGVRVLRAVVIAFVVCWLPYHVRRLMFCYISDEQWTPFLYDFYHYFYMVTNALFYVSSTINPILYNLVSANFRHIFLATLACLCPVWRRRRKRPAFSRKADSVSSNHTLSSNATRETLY
Chain of CAAX prenyl protease 1 (P47154 whole entry): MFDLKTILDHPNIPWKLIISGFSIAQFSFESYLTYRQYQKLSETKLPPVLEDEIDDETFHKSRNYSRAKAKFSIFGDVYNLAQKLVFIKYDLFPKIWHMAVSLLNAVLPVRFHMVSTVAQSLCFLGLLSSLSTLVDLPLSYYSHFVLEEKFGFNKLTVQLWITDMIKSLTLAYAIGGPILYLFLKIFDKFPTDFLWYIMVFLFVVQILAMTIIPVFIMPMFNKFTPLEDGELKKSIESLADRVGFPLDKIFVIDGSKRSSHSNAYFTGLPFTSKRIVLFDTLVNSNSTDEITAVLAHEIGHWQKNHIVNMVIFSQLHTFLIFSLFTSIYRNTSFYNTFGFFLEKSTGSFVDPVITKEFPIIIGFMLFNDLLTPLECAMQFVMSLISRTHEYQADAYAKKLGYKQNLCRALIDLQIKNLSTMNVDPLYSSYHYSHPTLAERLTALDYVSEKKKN

| SMILES | AC50 (Paired box protein Pax-8) | IC50 (HEK293 [1]) | EC50 [2] | EC50 [3] | EC50 [4] | EC50 [5] | IC50 (Fatty acid synthase) | IC50 (HEK293 [6]) | AC50 [7] | AC50 [8] | IC50 [9] | IC50 (Bcl-2-related protein A1) | IC50 [10] | EC50 (Streptococcus) | EC50 (Streptokinase A) | AC50 (CAAX prenyl protease 1) | AC50 [11] |
| --- | --- | --- | --- | --- | --- | --- | --- | --- | --- | --- | --- | --- | --- | --- | --- | --- | --- |
| O=C(NCCc1ccccc1)C(c1cccs1)N(C(=O)CCl)c1ccc(Cl)cc1 (configuration not stated) | 2.84 µM (active) | > 20 µM (inactive) | 2.5 µM (active) | 1.28 µM (active) | > 20 µM (inactive) | 3.7 µM (active) | 7.91 µM (active) | 5.36 µM (active) | 6.13 µM (active) | – | – | – | – | – | – | – | – |
| COc1cc(/C=C/c2cc[n+](C)cc2)ccc1OCC(=O)Nc1ccc(Cl)c(Cl)c1 | – | – | – | – | – | – | – | – | – | 8.27 µM (active) | 7.74 µM (active) | > 20 µM (inactive) | 7.13 µM (active) | 12.9 µM (active) | > 150 µM (not active) | – | – |
| CCCCCCCCCC[N+](C)(C)CC/C=C1/c2ccccc2Sc2ccc(Cl)cc21 | – | – | – | – | – | – | – | – | – | – | 3.77 µM (active) | 8.08 µM (active) | 4.61 µM (active) | 5.62 µM (active) | 6.63 µM (active) | 6.47 µM (active) | 8.12 µM (active) |
